Read-outs that look alike come from different tables or passages of the source. Bounds are passed on as bounds.

In the test the test system is ALP in normal human articular chondrocytes (NHACs). In words: Alkaline Phosphatase (ALP) activity assay (staining and quantitation) in NHACs, prevention of chondrocyte hypertrophy. The test is classed as cell-based. The following applies: human IL-1 beta 10 ng/mL, 12 days; for IC50: Fast Blue RR staining, high content imaging, read-out: ALP in NHAC IC50; for Emax / ALP in NHAC (% Efficacy): value in parentheses; for Emax: read-out: ALP in NHAC (% Efficacy). As for the experimental part: The compounds of the present invention were evaluated in the Alkaline Phosphatase (ALP) activity assay to determine the ability of the compounds to prevent chondrocyte hypertrophy in normal human articular chondrocytes (NHACs).
Normal human articular chondrocytes (NHACs) were purchased from PromoCell (Heidelberg, Germany) and grown in Chondrocyte Growth Medium (CGM; Lonza, Walkersville, Md.).
NHACs were expanded in Chondrocyte Growth Medium (CGM) from Lonza until they reached a 60-80% confluency. To initiate differentiation, 7,500 cells were plated/well with indicated test compound dose in 384-well Cell Carrier Ultra plates (Perkin Elmer) with DMEM (SH30022—HyClone) containing 10% FBS (35-015-CV—Corning), 1% Pen/Strep antibiotics (SV30010—HyClone), and 1% Normocin (50 mg/mL—InvivoGen). Cells with test compounds were incubated at 37° C., 5% CO2 for 5 hours and then added human IL-1 beta (AF-200-1B—Peprotech) to each well at a final concentration of 10 ng/mL and incubated at 37° C., 5% CO2 for 12 days.
To detect the presence of hypertrophic cells, NHACs were fixed with 4% paraformaldehyde and Hoechst 33342 (Invitrogen) dye for 30 minutes, rinsed in PBS, then stained with Fast Blue RR Salt (F0500—Sigma) with Naphthol AS-MX Phosphate Alkaline Solution, 0.25% (855—Sigma-Aldrich).
The staining was imaged by fluorescent microscopy, using the 561 nm wavelength, and/or quantified by high content imaging with the Image press Confocal (Molecular Devices, Sunnyvale, Calif.). Data analyses were performed with a customized multiwavelength cell-scoring application.

With `CC(C)n1cc([C@H]2[C@H]3O[C@H](C[C@@H]3O)[C@@H]2C(=O)Nc2cc(C(F)(F)F)ccc2C#N)c(C(F)(F)F)n1` (racemic) [Example 84, rac-(1R,2R,3S,4R,5S)—N-(2-cyano-5-(trifluoromethyl)phenyl)-5-hydroxy-3-(1-isopropyl-3-(trifluoromethyl)-1H-pyrazol-4-yl)-7-oxabicyclo[2.2.1]heptane-2-carboxamide], for the setting “Chondrocyte, 288 h”, the IC50 is 0.29 µM and the Emax was 86%.
Consider `Cc1cc(C(F)(F)F)cc(NC(=O)[C@@H]2[C@@H](c3cccc(C(F)(F)F)c3)[C@H]3O[C@@H]2C[C@@H]3O)n1` (racemic) [Example 8, rac-(1R,2R,3S,4R,5S)-5-hydroxy-N-(6-methyl-4-(trifluoromethyl)pyridin-2-yl)-3-(3-(trifluoromethyl)phenyl)-7-oxabicyclo[2.2.1]heptane-2-carboxamide], for which, for the setting “Chondrocyte, 288 h”, the IC50 came to 17 µM and the Emax worked out at 100%.
`O=C(Nc1ccc(N2CCOCC2)c(C(F)(F)F)c1)[C@@H]1[C@@H](c2cccc(C(F)(F)F)c2)[C@H]2O[C@@H]1C[C@@H]2O` (racemic) [Example 23, rac-(1R,2R,3S,4R,5S)-5-hydroxy-N-(4-morpholino-3-(trifluoromethyl)phenyl)-3-(3-(trifluoromethyl)phenyl)-7-oxabicyclo[2.2.1]heptane-2-carboxamide]: where the note is “Chondrocyte, 288 h”, the IC50 worked out at 17 µM and the Emax turned out to be 108%.
On to `Cn1cc([C@H]2[C@H]3O[C@H](C[C@@H]3O)[C@@H]2C(=O)Nc2cc(C(F)(F)F)ccn2)c(C(F)(F)F)n1` (single isomer, unassigned) [Example 38a, (1R,2R,3S,4R,5S)-5-hydroxy-3-(1-methyl-3-(trifluoromethyl)-1H-pyrazol-4-yl)-N-(4-(trifluoromethyl)pyridin-2-yl)-7-oxabicyclo[2.2.1]heptane-2-carboxamide or (1S,2S,3R,4S,5R)-5-hydroxy-3-(1-methyl-3-(trifluoromethyl)-1H-pyrazol-4-yl)-N-(4-(trifluoromethyl)pyridin-2-yl)-7-oxabicyclo[2.2.1]heptane-2-carboxamide], for which the IC50 was found to be 5.9 µM and the “ALP in NHAC (% Efficacy)” value is 81%.
On to `Cn1cc([C@H]2[C@H]3O[C@H](C[C@@H]3O)[C@@H]2C(=O)Nc2ccc(N3CCOCC3)c(C(F)(F)F)c2)c(C(F)(F)F)n1` (racemic) [Example 37, rac-(1R,2R,3S,4R,5S)-5-hydroxy-3-(1-methyl-3-(trifluoromethyl)-1H-pyrazol-4-yl)-N-(4-morpholino-3-(trifluoromethyl)phenyl)-7-oxabicyclo[2.2.1]heptane-2-carboxamide], for which, where the note is “Chondrocyte, 288 h”, the IC50 is > 30 µM and the Emax was determined as 45%.
With `Cn1cc([C@H]2[C@H]3O[C@H](C[C@@H]3O)[C@@H]2C(=O)Nc2cc(C(F)(F)F)ccc2C#N)c(C(F)(F)F)n1` (racemic) [Example 49, rac-(1R,2R,3S,4R,5S)—N-(2-cyano-5-(trifluoromethyl)phenyl)-5-hydroxy-3-(1-methyl-3-(trifluoromethyl)-1H-pyrazol-4-yl)-7-oxabicyclo[2.2.1]heptane-2-carboxamide], where the note is “Chondrocyte, 288 h”, the IC50 came out at 0.53 µM and the Emax was found to be 96%.
Consider `Cc1c(NC(=O)[C@@H]2[C@@H](c3cn(C)nc3C(F)(F)F)[C@H]3O[C@@H]2C[C@@H]3O)cccc1C(F)(F)F` (racemic) [Example 42, rac-(1R,2R,3S,4R,5S)-5-hydroxy-3-(1-methyl-3-(trifluoromethyl)-1H-pyrazol-4-yl)-N-(2-methyl-3-(trifluoromethyl)phenyl)-7-oxabicyclo[2.2.1]heptane-2-carboxamide], for which, where the note is “Chondrocyte, 288 h”, the IC50 is > 30 µM and the Emax came to 21%.
With `Cn1cc([C@H]2[C@H]3O[C@H](C[C@@H]3O)[C@@H]2C(=O)Nc2cc(C(F)(F)F)cc(C3CC3)n2)c(C(F)(F)F)n1` (racemic) [Example 40, rac-(1R,2R,3S,4R,5S)—N-(6-cyclopropyl-4-(trifluoromethyl)pyridin-2-yl)-5-hydroxy-3-(1-methyl-3-(trifluoromethyl)-1H-pyrazol-4-yl)-7-oxabicyclo[2.2.1]heptane-2-carboxamide], under “Chondrocyte, 288 h”, the 50% inhibitory concentration (IC50) was found to be 10 µM and the Emax was 83%.
Consider `Cn1cc([C@H]2[C@H]3O[C@H](C[C@@H]3O)[C@@H]2C(=O)Nc2cc(C(F)(F)F)ccn2)c(C(F)(F)F)n1` (single isomer, unassigned) [Example 38b, (1R,2R,3S,4R,5S)-5-hydroxy-3-(1-methyl-3-(trifluoromethyl)-1H-pyrazol-4-yl)-N-(4-(trifluoromethyl)pyridin-2-yl)-7-oxabicyclo[2.2.1]heptane-2-carboxamide or (1S,2S,3R,4S,5R)-5-hydroxy-3-(1-methyl-3-(trifluoromethyl)-1H-pyrazol-4-yl)-N-(4-(trifluoromethyl)pyridin-2-yl)-7-oxabicyclo[2.2.1]heptane-2-carboxamide], for which the IC50 was > 30 µM and the “ALP in NHAC (% Efficacy)” value is 27%.
Consider `O=C(Nc1ccc(C(F)(F)F)cn1)[C@@H]1[C@@H](c2cccc(C(F)(F)F)c2)[C@H]2O[C@@H]1C[C@@H]2O` (racemic) [Example 26, rac-(1R,2R,3S,4R,5S)-5-hydroxy-3-(3-(trifluoromethyl)phenyl)-N-(5-(trifluoromethyl)pyridin-2-yl-7-oxabicyclo[2.2.1]heptane-2-carboxamide], for which, where the note is “Chondrocyte, 288 h”, the IC50 came to 11 µM and the Emax is 112%.
As to `Cn1cc([C@H]2[C@H]3O[C@H](C[C@@H]3O)[C@@H]2C(=O)Nc2cc(C(F)(F)F)c(Cl)cn2)c(C(F)(F)F)n1` (single isomer, unassigned) [Example 36a, (1R 2R,3S,4R,5S)—N-(5-chloro-4-(trifluoromethyl)pyridin-2-yl)-5-hydroxy-3-(1-methyl-3-(trifluoromethyl)-1H-pyrazol-4-yl)-7-oxabicyclo[2.2.1]heptane-2-carboxamide or (1S,2S,3R,4S,5R)—N-(5-chloro-4-(trifluoromethyl)pyridin-2-yl)-5-hydroxy-3-(1-methyl-3-(trifluoromethyl)-1H-pyrazol-4-yl)-7-oxabicyclo[2.2.1]heptane-2-carboxamide], the IC50 was found to be 9.4 µM and the “ALP in NHAC (% Efficacy)” value stood at 95%.
For `Cn1cc([C@H]2[C@H]3O[C@H](C[C@@H]3O)[C@@H]2C(=O)Nc2cc(C(F)(F)F)cc(Cl)n2)c(C(F)(F)F)n1` (racemic) [Example 35, rac-(1R,2R,3S,4R,5S)—N-(6-chloro-4-(trifluoromethyl)pyridin-2-yl)-5-hydroxy-3-(1-methyl-3-(trifluoromethyl)-1H-pyrazol-4-yl)-7-oxabicyclo[2.2.1]heptane-2-carboxamide], where the note is “Chondrocyte, 288 h”, the IC50 is 9.8 µM and the Emax worked out at 83%.
In the case of `COc1ccc(C(F)(F)F)cc1NC(=O)[C@@H]1[C@@H](c2cn(C)nc2C(F)(F)F)[C@H]2O[C@@H]1C[C@@H]2O` (racemic) [Example 33, rac-(1R,2R,3S,4R,5)-5-hydroxy-N-(2-methoxy-5-(trifluoromethyl)phenyl)-3-(1-methyl-3-(trifluoromethyl)-1H-pyrazol-4-yl)-7-oxabicyclo[2.2.1]heptane-2-carboxamide], under “Chondrocyte, 288 h”, the IC50 is 2.8 µM and the Emax was determined as 74%.
Turning to `O=C(Nc1cccc(C(F)(F)F)c1F)[C@@H]1[C@@H](c2cccc(C(F)(F)F)c2)[C@H]2O[C@@H]1C[C@@H]2O` (racemic) [Example 15, rac-(1R,2R,3S,4R,5S)—N-(2-fluoro-3-(trifluoromethyl)phenyl)-5-hydroxy-3-(3-(trifluoromethyl)phenyl)-7-oxabicyclo[2.2.1]heptane-2-carboxamide], where the note is “Chondrocyte, 288 h”, the half-maximal inhibitory concentration (IC50) was found to be 7 µM and the Emax was determined as 105%.
With `N#Cc1ccc(C(F)(F)F)cc1NC(=O)[C@@H]1[C@@H](c2cccc(C(F)(F)F)c2)[C@H]2O[C@@H]1C[C@@H]2O` (single isomer, unassigned) [Example 48b, (1R,2R,3S,4R,5S)—N-(2-cyano-5-(trifluoromethyl)phenyl)-5-hydroxy-3-(3-(trifluoromethyl)phenyl)-7-oxabicyclo[2.2.1]heptane-2-carboxamide or (1S,2S,3R,4S,5R)—N-(2-cyano-5-(trifluoromethyl)phenyl)-5-hydroxy-3-(3-(trifluoromethyl)phenyl)-7-oxabicyclo[2.2.1]heptane-2-carboxamide], the concentration for half-maximal inhibition (IC50) turned out to be 1.9 µM and the “ALP in NHAC (% Efficacy)” value was 98%.
With `Cn1cc([C@H]2[C@H]3O[C@H](C[C@@H]3O)[C@@H]2C(=O)Nc2cc(C(F)(F)F)ccn2)c(C(F)(F)F)n1` (racemic) [Example 38, rac-(1R,2R,3S,4R,5S)-5-hydroxy-3-(1-methyl-3-(trifluoromethyl)-1H-pyrazol-4-yl)-N-(4-(trifluoromethyl)pyridin-2-yl)-7-oxabicyclo[2.2.1]heptane-2-carboxamide], where the note is “Chondrocyte, 288 h”, the IC50 was 3.6 µM and the Emax worked out at 94%.

The values are drawn from patent US12257243B2, “5-hydroxy-7-oxabicyclo[2.2.1]heptane-2-carboxamide derivatives for inducing chondrogenesis for treating joint damage” (NOVARTIS AG, priority 2018, dated 2025).
